Data as given in patent US8987250B2 (Gilead Sciences, Inc., priority 2012, dated 2015).
pEC50: −log10 of the molar value.

Test system: HIV-IIIb
Test: Test A: Antiviral Assay in MT4 Cells
Type: cell-based
Conditions: Human immunodeficiency virus 1, IIIB, MT4, 120 h
Summary of the method: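 MT-4 cells pre-infected with HIV-IIIb (0.004 m.o.i.) at 37 °C, then exposed to 3-fold serial compound dilutions (10 concentrations, quadruplicate) in RPMI 1640/10% FBS. After 5 days at 37 °C, viability read by CellTiter-Glo luminescence.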

| SMILES | pEC50 |
| --- | --- |
| Cc1cc2nc(-c3cccc(N4CCN(C(C)C)CC4)n3)sc2c(-c2ccc(Cl)cc2)c1[C@H](OC(C)(C)C)C(=O)O [Compound 307, (S)-2-tert-butoxy-2-(7-(4-chlorophenyl)-2-(6-(4-isopropylpiperazin-1-yl)pyridin-2-yl)-5-methylbenzo[d]thiazol-6-yl)acetic acid] | 8.40 |
| Cc1cc2nc(-c3nc(-c4ccc5c(cnn5C)c4)cs3)sc2c(-c2ccc(Cl)cc2)c1[C@H](OC(C)(C)C)C(=O)O [Compound 310, (S)-2-tert-butoxy-2-(7-(4-chlorophenyl)-5-methyl-2-(4-(1-methyl-1H-indazol-5-yl)thiazol-2-yl)benzo[d]thiazol-6-yl)acetic acid] | 7.59 |
| Cc1cc2nc(N3CCOC(c4ccccc4)C3)sc2c(-c2ccc(Cl)cc2)c1[C@H](OC(C)(C)C)C(=O)O (stereo partly drawn) [Compound 327, (2S)-2-tert-butoxy-2-(7-(4-chlorophenyl)-5-methyl-2-(2-phenylmorpholino)benzo[d]thiazol-6-yl)acetic acid] | 6.79 |

Same assay, conditions: Human immunodeficiency virus 1, IIIB, MT4, 120 h, Table 2; MT-4 cells infected with HIV-IIIb, 5 days of incubation, CellTiter-Glo; read-out: EC50

| SMILES | pEC50 |
| --- | --- |
| Cc1cc2nc(-c3cccc(N4CCN(C5COC5)CC4)n3)sc2c(-c2ccc(Cl)cc2)c1[C@H](OC(C)(C)C)C(=O)O [Compound 308, (S)-2-tert-butoxy-2-(7-(4-chlorophenyl)-5-methyl-2-(6-(4-(oxetan-3-yl)piperazin-1-yl)pyridin-2-yl)benzo[d]thiazol-6-yl)acetic acid] | 8.22 |
| Cc1cc2nc(-c3cccc(-c4ccc5c(cnn5C)c4)n3)sc2c(-c2ccc(Cl)cc2)c1[C@H](OC(C)(C)C)C(=O)O [Compound 309, (S)-2-tert-butoxy-2-(7-(4-chlorophenyl)-5-methyl-2-(6-(1-methyl-1H-indazol-5-yl)pyridin-2-yl)benzo[d]thiazol-6-yl)acetic acid] | 7.43 |
| Cc1cc2nc(-c3nc(-c4ccc5c(cnn5C)c4)ccc3N)sc2c(-c2ccc(Cl)cc2)c1[C@H](OC(C)(C)C)C(=O)O [Compound 311, (S)-2-(2-(3-amino-6-(1-methyl-1H-indazol-5-yl)pyridin-2-yl)-7-(4-chlorophenyl)-5-methylbenzo[d]thiazol-6-yl)-2-tert-butoxyacetic acid] | 7.35 |
| Cc1cc2nc(-c3cn(C)c(-c4ccc5c(cnn5C)c4)n3)sc2c(-c2ccc(Cl)cc2)c1[C@H](OC(C)(C)C)C(=O)O [Compound 312, (S)-2-tert-butoxy-2-(7-(4-chlorophenyl)-5-methyl-2-(1-methyl-2-(1-methyl-1H-indazol-5-yl)-1H-imidazol-4-yl)benzo[d]thiazol-6-yl)acetic acid] | 7.43 |
| Cc1ccc(-c2nc3cc(C)c([C@H](OC(C)(C)C)C(=O)O)c(-c4ccc(Cl)cc4)c3s2)nc1-c1ccc2c(cnn2C)c1 [Compound 313, (S)-2-tert-butoxy-2-(7-(4-chlorophenyl)-5-methyl-2-(5-methyl-6-(1-methyl-1H-indazol-5-yl)pyridin-2-yl)benzo[d]thiazol-6-yl)acetic acid] | 7.85 |
| Cc1cc2nc(-c3ccc4c(c3)c(C)nn4Cc3ccccc3)sc2c(-c2ccc(Cl)cc2)c1[C@H](OC(C)(C)C)C(=O)O [Compound 314, (S)-2-(2-(1-benzyl-3-methyl-1H-indazol-5-yl)-7-(4-chlorophenyl)-5-methylbenzo[d]thiazol-6-yl)-2-tert-butoxyacetic acid] | 7.38 |
| Cc1cc2nc(-c3ccc4nn(Cc5ccccc5)c(C)c4c3)sc2c(-c2ccc(Cl)cc2)c1[C@H](OC(C)(C)C)C(=O)O [Compound 315, (S)-2-(2-(2-benzyl-3-methyl-2H-indazol-5-yl)-7-(4-chlorophenyl)-5-methylbenzo[d]thiazol-6-yl)-2-tert-butoxyacetic acid] | 7.47 |
| Cc1cc2nc(-c3ccc4nnn(C)c4c3)sc2c(-c2ccc(Cl)cc2)c1[C@H](OC(C)(C)C)C(=O)O [Compound 316, (S)-2-tert-butoxy-2-(7-(4-chlorophenyl)-5-methyl-2-(1-methyl-1H-benzo[d][1,2,3]triazol-6-yl)benzo[d]thiazol-6-yl)acetic acid] | 7.74 |
| Cc1cc2nc(-c3ccn4c(C)nnc4c3)sc2c(-c2ccc(Cl)cc2)c1[C@H](OC(C)(C)C)C(=O)O [Compound 317, (S)-2-tert-butoxy-2-(7-(4-chlorophenyl)-5-methyl-2-(3-methyl-[1,2,4]triazolo[4,3-a]pyridin-7-yl)benzo[d]thiazol-6-yl)acetic acid] | 7.89 |
| Cc1cc2nc(-c3ccn4nnc(C)c4c3)sc2c(-c2ccc(Cl)cc2)c1[C@H](OC(C)(C)C)C(=O)O [Compound 318, (S)-2-tert-butoxy-2-(7-(4-chlorophenyl)-5-methyl-2-(3-methyl-[1,2,3]triazolo[1,5-a]pyridin-5-yl)benzo[d]thiazol-6-yl)acetic acid] | 8.00 |
| Cc1cc2nc(-c3ccn4c(C)nc(C)c4c3)sc2c(-c2ccc(Cl)cc2)c1[C@H](OC(C)(C)C)C(=O)O [Compound 319, (S)-2-tert-butoxy-2-(7-(4-chlorophenyl)-2-(1,3-dimethylimidazo[1,5-a]pyridin-7-yl)-5-methylbenzo[d]thiazol-6-yl)acetic acid] | 8.30 |
| Cc1cc2nc(N3CCOC(C)(c4ccc(Cl)cc4)C3)sc2c(-c2ccc(Cl)cc2)c1[C@H](OC(C)(C)C)C(=O)O (stereo partly drawn) [Compound 322, (2S)-2-tert-butoxy-2-(7-(4-chlorophenyl)-2-(2-(4-chlorophenyl)-2-methylmorpholino)-5-methylbenzo[d]thiazol-6-yl)acetic acid] | 6.19 |
| Cc1ccc(C2(C)CN(c3nc4cc(C)c([C@H](OC(C)(C)C)C(=O)O)c(-c5ccc(Cl)cc5)c4s3)CCO2)cc1 (stereo partly drawn) [Compound 323, (2S)-2-tert-butoxy-2-(7-(4-chlorophenyl)-5-methyl-2-(2-methyl-2-p-tolylmorpholino)benzo[d]thiazol-6-yl)acetic acid] | 6.42 |
| Cc1cc2nc(N3CCOC(c4ccc5c(cnn5C)c4)C3)sc2c(-c2ccc(Cl)cc2)c1[C@H](OC(C)(C)C)C(=O)O (stereo partly drawn) [Compound 324, (2S)-2-tert-butoxy-2-(7-(4-chlorophenyl)-5-methyl-2-(2-(1-methyl-1H-indazol-5-yl)morpholino)benzo[d]thiazol-6-yl)acetic acid] | 7.89 |
| Cc1cc2nc(N3CCO[C@H](c4ccc5c(cnn5C)c4)C3)sc2c(-c2ccc(Cl)cc2)c1[C@H](OC(C)(C)C)C(=O)O [Compound 325, (S)-2-tert-butoxy-2-(7-(4-chlorophenyl)-5-methyl-2-((R)-2-(1-methyl-1H-indazol-5-yl)morpholino)benzo[d]thiazol-6-yl)acetic acid] | 8.00 |
| Cc1cc2nc(N3CCO[C@@H](c4ccc5c(cnn5C)c4)C3)sc2c(-c2ccc(Cl)cc2)c1[C@H](OC(C)(C)C)C(=O)O [Compound 326, (S)-2-tert-butoxy-2-(7-(4-chlorophenyl)-5-methyl-2-((S)-2-(1-methyl-1H-indazol-5-yl)morpholino)benzo[d]thiazol-6-yl)acetic acid] | 7.18 |

| SMILES | pEC50 |
| --- | --- |
| Cc1cc2nc(-c3ccc4nn(C5COC5)cc4c3)sc2c(-c2ccc(Cl)cc2)c1[C@H](OC(C)(C)C)C(=O)O [Compound 328, (S)-2-tert-butoxy-2-(7-(4-chlorophenyl)-5-methyl-2-(2-(oxetan-3-yl)-2H-indazol-5-yl)benzo[d]thiazol-6-yl)acetic acid] | 7.36 |
| Cc1cc2nc(-c3ccc4c(cnn4C4COC4)c3)sc2c(-c2ccc(Cl)cc2)c1[C@H](OC(C)(C)C)C(=O)O [Compound 329, (S)-2-tert-butoxy-2-(7-(4-chlorophenyl)-5-methyl-2-(1-(oxetan-3-yl)-1H-indazol-5-yl)benzo[d]thiazol-6-yl)acetic acid] | 7.85 |
| Cc1cc2nc(-c3ccc4c(c3)c(C(C)C)nn4C)sc2c(-c2ccc(Cl)cc2)c1[C@H](OC(C)(C)C)C(=O)O [Compound 330, (S)-2-tert-butoxy-2-(7-(4-chlorophenyl)-2-(3-isopropyl-1-methyl-1H-indazol-5-yl)-5-methylbenzo[d]thiazol-6-yl)acetic acid] | 7.72 |
| COc1ccc(-c2cc(-c3nc4cc(C)c([C@H](OC(C)(C)C)C(=O)O)c(-c5ccc(Cl)cc5)c4s3)c(C)nn2)cc1OC [Compound 331] | 7.36 |
| Cc1cc2nc(-c3ccnc(N4CCC(C)(O)CC4)n3)sc2c(-c2ccc(Cl)cc2)c1[C@H](OC(C)(C)C)C(=O)O [Compound 332] | 8.30 |
| Cc1cc2nc(-c3ccnc(N4CCC(N(C)C)CC4)n3)sc2c(-c2ccc(Cl)cc2)c1[C@H](OC(C)(C)C)C(=O)O [Compound 334] | 8.30 |
| Cc1cc2nc(-c3cc(-c4ccc5c(cnn5C)c4)nnc3C)sc2c(-c2ccc(Cl)cc2)c1[C@H](OC(C)(C)C)C(=O)O [Compound 335] | 7.85 |
| Cc1cc2nc(-c3ccnc(N4CCN(C)C[C@@H]4C)n3)sc2c(-c2ccc(Cl)cc2)c1[C@H](OC(C)(C)C)C(=O)O [Compound 337] | 8.40 |
| COc1ccc(-c2cc(-c3nc4cc(C)c([C@H](OC(C)(C)C)C(=O)O)c(-c5ccc(Cl)cc5)c4s3)cnn2)cc1OC [Compound 338] | 7.96 |
| Cc1cc2nc(-c3ccnc(N4CCN(C5CC5)CC4)n3)sc2c(-c2ccc(Cl)cc2)c1[C@H](OC(C)(C)C)C(=O)O [Compound 339] | 7.96 |
| Cc1cc2nc(-c3ccnc(C4CCOCC4)n3)sc2c(-c2ccc(Cl)cc2)c1[C@H](OC(C)(C)C)C(=O)O [Compound 340] | 8.05 |
| Cc1cc2nc(-c3ccnc(C4=CCOCC4)n3)sc2c(-c2ccc(Cl)cc2)c1[C@H](OC(C)(C)C)C(=O)O [Compound 341] | 7.85 |
| Cc1cc2nc(-c3ccnc(C4=CCN(C)CC4)n3)sc2c(-c2ccc(Cl)cc2)c1[C@H](OC(C)(C)C)C(=O)O [Compound 342] | 8.30 |
| Cc1cc2nc(-c3ccnc(N4CCOCC4)n3)sc2c(-c2ccc(Cl)cc2)c1[C@H](OC(C)(C)C)C(=O)O [Compound 343] | 7.59 |
| Cc1cc2nc(-c3ccnc(N4CCN(C)CC4)n3)sc2c(-c2ccc(Cl)cc2)c1[C@H](OC(C)(C)C)C(=O)O [Compound 344] | 8.22 |
| COc1cc(-c2cc(-c3nc4cc(C)c([C@H](OC(C)(C)C)C(=O)O)c(-c5ccc(Cl)cc5)c4s3)ccn2)cnc1OC [Compound 345] | 7.55 |
